Columns and labels:
[1] = molecular target: FGFR1 kinase (Homo sapiens (Human), UniProt P11362); assay: FGFR1 TR-FRET kinase assay; assay type: biochemical; conditions: for inhibition at 1 µM: 1000 nM compound; for IC50: 13 μM ATP, read-out: IC50 of FGFR1 inhibition
Experimental: Compounds were screened in the TR-FRET assay with FGFR1 kinase. 5 ng of FGFR1 [Upstate, USA] kinase was used for assay. The compound was incubated with the kinase for 30 minutes at RT. After the incubation, substrate mix [40 nM Ultra light poly GT (Perkin Elmer, USA) and 13 μM ATP (Sigma)] was added. The above reaction was stopped by the addition of 40 mM EDTA after the […] kinase reaction. The Eu-labelled antiphospho-tyrosine antibody [Perkin Elmer, USA] was added at 0.5 nM and the fluorescence emission at 615 nm/665 nm [excitation at 340 nm] was measured. The compounds were initially screened at 100 nM and 1 μM concentrations. The compounds with >50% inhibition at 100 nM of FGFR1 were taken for the full dose response studies. The final DMSO concentration in the assay was 1%. For IC50 determination, ⅓^rd serial dilution was made from the 20 mM DMSO stock solution. 2 μl of these were transferred to the test wells containing 20 μl of the reaction mixture [total reaction volume 20 μl]. The fluorescence was measured in Perkin Elmer Wallac 1420 Multilabel Counter Victor 3. The IC50 was determined by fitting the dose response data to sigmoidal curve fitting equation using GraphPad Prism software V5.

[2] = molecular target: c-Met kinase (Homo sapiens (Human), UniProt P08581); assay: c-Met TR-FRET kinase assay; assay type: biochemical; conditions: 1000 nM compound
Sequence of c-Met kinase (P08581 25-1390): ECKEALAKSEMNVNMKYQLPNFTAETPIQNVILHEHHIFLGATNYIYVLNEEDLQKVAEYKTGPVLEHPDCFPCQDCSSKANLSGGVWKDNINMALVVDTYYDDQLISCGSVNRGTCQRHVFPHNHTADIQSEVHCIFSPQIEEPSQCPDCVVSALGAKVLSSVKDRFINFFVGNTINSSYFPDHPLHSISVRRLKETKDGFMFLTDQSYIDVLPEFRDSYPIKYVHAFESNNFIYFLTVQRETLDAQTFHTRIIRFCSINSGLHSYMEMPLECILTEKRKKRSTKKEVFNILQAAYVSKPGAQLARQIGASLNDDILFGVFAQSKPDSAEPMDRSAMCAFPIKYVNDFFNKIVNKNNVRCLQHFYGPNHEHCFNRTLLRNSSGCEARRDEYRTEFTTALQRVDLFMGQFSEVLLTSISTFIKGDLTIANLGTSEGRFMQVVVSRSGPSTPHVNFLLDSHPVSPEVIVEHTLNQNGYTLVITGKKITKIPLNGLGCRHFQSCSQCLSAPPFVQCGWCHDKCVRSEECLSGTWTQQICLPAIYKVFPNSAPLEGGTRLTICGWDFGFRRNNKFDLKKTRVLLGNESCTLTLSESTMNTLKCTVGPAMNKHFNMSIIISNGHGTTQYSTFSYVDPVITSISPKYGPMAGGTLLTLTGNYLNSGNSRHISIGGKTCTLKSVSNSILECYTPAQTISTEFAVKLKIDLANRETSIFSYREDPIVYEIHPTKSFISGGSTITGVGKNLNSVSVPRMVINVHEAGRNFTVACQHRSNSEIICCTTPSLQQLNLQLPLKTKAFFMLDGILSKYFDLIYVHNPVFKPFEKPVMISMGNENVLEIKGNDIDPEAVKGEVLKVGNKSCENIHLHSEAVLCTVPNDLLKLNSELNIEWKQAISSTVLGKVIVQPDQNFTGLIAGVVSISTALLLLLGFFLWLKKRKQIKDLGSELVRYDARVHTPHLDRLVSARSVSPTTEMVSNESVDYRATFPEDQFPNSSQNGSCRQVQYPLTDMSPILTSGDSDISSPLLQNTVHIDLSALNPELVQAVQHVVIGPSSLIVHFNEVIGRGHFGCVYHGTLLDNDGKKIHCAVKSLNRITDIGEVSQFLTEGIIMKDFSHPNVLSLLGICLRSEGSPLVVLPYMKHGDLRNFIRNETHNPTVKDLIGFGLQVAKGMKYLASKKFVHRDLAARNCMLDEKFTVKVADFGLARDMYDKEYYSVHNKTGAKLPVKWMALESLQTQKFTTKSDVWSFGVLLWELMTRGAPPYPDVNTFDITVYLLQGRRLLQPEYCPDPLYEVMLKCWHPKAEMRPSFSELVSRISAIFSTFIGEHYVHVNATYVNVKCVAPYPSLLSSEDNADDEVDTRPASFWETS
Experimental: Compounds were screened in the TR-FRET assay with c-Met kinase. 0.1 ng of c-Met [expressed in-house] kinase was used for assay. The compound was incubated with the kinase for 60 min at RT. After the incubation, substrate mix [40 nM Ultra light poly GT (Perkin Elmer, USA) and 10 μM ATP (Sigma)] was added. The above reaction was stopped by the addition of 40 mM EDTA after the 30 min kinase reaction. The Eu-labelled antiphospho-tyrosine antibody [Perkin Elmer, USA] was added at 0.5 nM and the fluorescence emission at 615 nm/665 nm [excitation at 340 nm] was measured. The compounds were initially screened at 100 nM and 1 μM concentrations. The compounds with >50% inhibition at 100 nM of c-Met were taken for the full dose response studies. The final DMSO concentration in the assay was 1%. For IC50 determination, ⅓rd serial dilution was made from the 20 mM DMSO stock solution. 2 μl of these were transferred to the test wells containing 20 μl reaction mixture [total reaction volume 20 μl]. The fluorescence was measured in Perkin Elmer Wallac 1420 Multilabel Counter Victor 3. The IC50 was determined by fitting the dose response data to sigmoidal curve fitting equation using GraphPad Prism software V5.

Sequence of FGFR1 kinase (P11362 22-822): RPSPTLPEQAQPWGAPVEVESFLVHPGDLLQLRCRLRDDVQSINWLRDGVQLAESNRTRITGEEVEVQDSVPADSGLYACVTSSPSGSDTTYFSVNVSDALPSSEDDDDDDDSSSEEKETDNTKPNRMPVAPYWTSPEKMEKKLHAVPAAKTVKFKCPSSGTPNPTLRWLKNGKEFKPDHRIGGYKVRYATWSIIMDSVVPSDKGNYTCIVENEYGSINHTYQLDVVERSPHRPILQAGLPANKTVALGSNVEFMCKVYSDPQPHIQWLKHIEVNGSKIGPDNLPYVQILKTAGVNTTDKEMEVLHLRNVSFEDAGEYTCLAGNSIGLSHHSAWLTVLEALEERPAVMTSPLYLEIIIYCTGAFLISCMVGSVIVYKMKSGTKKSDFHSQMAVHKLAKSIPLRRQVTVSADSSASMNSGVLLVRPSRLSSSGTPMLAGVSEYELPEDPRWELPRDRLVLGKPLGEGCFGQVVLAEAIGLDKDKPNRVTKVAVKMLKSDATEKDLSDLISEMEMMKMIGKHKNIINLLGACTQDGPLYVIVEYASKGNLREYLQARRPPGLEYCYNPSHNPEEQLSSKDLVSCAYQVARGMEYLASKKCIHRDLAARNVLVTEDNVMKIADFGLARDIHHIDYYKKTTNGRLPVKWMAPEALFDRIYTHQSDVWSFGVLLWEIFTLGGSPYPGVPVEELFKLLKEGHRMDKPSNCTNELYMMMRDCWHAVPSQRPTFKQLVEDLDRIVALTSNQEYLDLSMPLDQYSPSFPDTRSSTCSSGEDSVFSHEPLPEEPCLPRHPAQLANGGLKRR

CCS(=O)(=O)Nc1cc(-c2ccc(F)cc2F)cc(-n2cnc3cc(-c4cn(CCN5CCOCC5)nn4)ccc32)c1 [Example 49, N-(2′,4′-difluoro-5-(5-(1-(2-morpholinoethyl)-1H-1,2,3-triazol-4-yl)-1H-benzo[d]imidazol-1-yl)biphenyl-3-yl)ethanesulfonamide]
inhibition at 1 µM [1]: 98%
IC50 [1]: 3.4 nM
inhibition at 1 µM [2]: 9%

COc1ccc(-c2ccc3c(c2)ncn3-c2cc(NC(C)=O)cc(-c3ccc(F)cc3)c2)cn1 [Example 69, N-(4′-fluoro-5-(5-(6-methoxypyridin-3-yl)-1H-benzo[d]imidazol-1-yl)biphenyl-3-yl)acetamide]
inhibition at 1 µM [1]: 87%
IC50 [1]: 22 nM
inhibition at 1 µM [2]: -2%

CC(=O)Nc1cc(-c2ccc(F)cc2)cc(-n2cnc3cc(-n4cccn4)ccc32)c1 [Example 70, N-(5-(5-(1H-pyrazol-1-yl)-1H-benzo[d]imidazol-1-yl)-4′-fluorobiphenyl-3-yl)-acetamide]
inhibition at 1 µM [1]: 99%
IC50 [1]: 10 nM
inhibition at 1 µM [2]: 0%

CCS(=O)(=O)Nc1cc(-c2ccc(F)cc2)cc(-n2cnc3cc(-n4cccn4)ccc32)c1 [Example 72, N-(5-(5-(1H-pyrazol-1-yl)-1H-benzo[d]imidazol-1-yl)-4′-fluorobiphenyl-3-yl)-ethanesulfonamide]
inhibition at 1 µM [1]: 98%
IC50 [1]: 32 nM
inhibition at 1 µM [2]: 11%

CC(=O)Nc1cc(-c2ccc(C)o2)cc(-n2cnc3cc(-c4cnn(CCN(C)C)c4)ccc32)c1 [Example 82, N-(3-(5-(1-(2-(dimethylamino)ethyl)-1H-pyrazol-4-yl)-1H-benzo[d]imidazol-1-yl)-5-(5-methylfuran-2-yl)phenyl)acetamide]
inhibition at 1 µM [1]: 96%
IC50 [1]: 16 nM
inhibition at 1 µM [2]: 15%

CC(=O)Nc1cc(-c2ccc(C)o2)cc(-n2cnc3cc(-c4cnn(CCN5CCOCC5)c4)ccc32)c1 [Example 83, N-(3-(5-methylfuran-2-yl)-5-(5-(1-(2-morpholinoethyl)-1H-pyrazol-4-yl)-1H-benzo[d]imidazol-1-yl)phenyl)acetamide]
inhibition at 1 µM [1]: 95%
IC50 [1]: 37 nM
inhibition at 1 µM [2]: 5%

CC(=O)Nc1cc(-n2cccc2)cc(-n2cnc3cc(-c4cn(CCC(C)(C)O)nn4)ccc32)c1 [Example 112, N-(3-(5-(1-(3-hydroxy-3-methylbutyl)-1H-1,2,3-triazol-4-yl)-1H-benzo[d]-imidazol-1-yl)-5-(1H-pyrrol-1-yl)phenyl)acetamide]
inhibition at 1 µM [1]: 97%
IC50 [1]: 1.8 nM
inhibition at 1 µM [2]: 0%

Cn1cc(-c2ccc3c(c2)ncn3-c2cc(NS(=O)(=O)N3CCCCC3)cc(-n3cccn3)c2)cn1 [Example 119, N-(3-(5-(1-methyl-1H-pyrazol-4-yl)-1H-benzo[d]imidazol-1-yl)-5-(1H-pyrazol-1-yl)phenyl)piperidine-1-sulfonamide]
inhibition at 1 µM [1]: 94%
IC50 [1]: 83 nM
inhibition at 1 µM [2]: 23%

O=C(NCc1ccco1)Nc1cc(-n2cccn2)cc(-n2cnc3cc(-n4cccn4)ccc32)c1 [Example 123, 1-(3-(5-(1H-pyrazol-1-yl)-1H-benzo[d]imidazol-1-yl)-5-(1H-pyrazol-1-yl)-phenyl)-3-(furan-2-ylmethyl)urea]
inhibition at 1 µM [1]: 94%
IC50 [1]: 61 nM
inhibition at 1 µM [2]: 0%

CC(=O)Nc1cc(-n2cccn2)cc(-n2cnc3cc(-c4cnn(CC5CC5)c4)ccc32)c1 [Example 127, N-(3-(5-(1-(cyclopropylmethyl)-1H-pyrazol-4-yl)-1H-benzo[d]imidazol-1-yl)-5-(1H-pyrazol-1-yl)phenyl)acetamide]
inhibition at 1 µM [1]: 91%
IC50 [1]: 62 nM
inhibition at 1 µM [2]: 10%

CC(=O)Nc1cc(-c2ccc(F)cc2F)cc(-n2cnc3cc(-c4cnn(C)c4)cnc32)c1 [Example 131, N-(2′,4′-difluoro-5-(6-(1-methyl-1H-pyrazol-4-yl)-3H-imidazo[4,5-b]pyridin-3-yl)biphenyl-3-yl)acetamide]
inhibition at 1 µM [1]: 99%
IC50 [1]: 1.3 nM
inhibition at 1 µM [2]: 15%

CCS(=O)(=O)Nc1cc(-c2ccc(F)cc2F)cc(-n2cnc3cc(-c4cnn(C)c4)cnc32)c1 [Example 133, N-(2′,4′-difluoro-5-(6-(1-methyl-1H-pyrazol-4-yl)-3H-imidazo[4,5-b]pyridin-3-yl)biphenyl-3-yl)ethanesulfonamide]
inhibition at 1 µM [1]: 97%
IC50 [1]: 14 nM
inhibition at 1 µM [2]: 0%

Cn1cc(-c2cnc3c(c2)ncn3-c2cc(NS(=O)(=O)c3ccccc3)cc(-c3ccc(F)cc3F)c2)cn1 [Example 134, N-(2′,4′-difluoro-5-(6-(1-methyl-1H-pyrazol-4-yl)-3H-imidazo[4,5-b]pyridin-3-yl)biphenyl-3-yl)benzenesulfonamide]
inhibition at 1 µM [1]: 92%
IC50 [1]: 98 nM
inhibition at 1 µM [2]: 0%

CC(C)S(=O)(=O)Nc1cc(-c2cc(F)ccc2F)cc(-n2cnc3cc(-c4cnn(CCN5CCOCC5)c4)ccc32)c1 [Example 142, N-(2′,5′-difluoro-5-(5-(1-(2-morpholinoethyl)-1H-pyrazol-4-yl)-1H-benzo[d]-imidazol-1-yl)biphenyl-3-yl)propane-2-sulfonamide]
inhibition at 1 µM [1]: 91%
IC50 [1]: 48 nM
inhibition at 1 µM [2]: 0%

CC(=O)Nc1cc(-c2c(F)cccc2F)cc(-n2cnc3cc(-n4cccn4)ccc32)c1 [Example 152, N-(5-(5-(1H-pyrazol-1-yl)-1H-benzo[d]imidazol-1-yl)-2′,6′-difluorobiphenyl-3-yl)acetamide]
inhibition at 1 µM [1]: 79%
IC50 [1]: 7.3 nM
inhibition at 1 µM [2]: 0%

CC(=O)Nc1cc(-n2cncn2)cc(-n2cnc3cc(-c4cnn(C)c4)ccc32)c1 [Example 155, N-(3-(5-(1-methyl-1H-pyrazol-4-yl)-1H-benzo[d]imidazol-1-yl)-5-(1H-1,2,4-triazol-1-yl)phenyl)acetamide]
inhibition at 1 µM [1]: 89%
IC50 [1]: 62 nM
inhibition at 1 µM [2]: 1%

COc1ccc(-c2cc(NC(C)=O)cc(-n3cnc4cc(-c5cnn(C)c5)ccc43)c2)cn1 [Example 158, N-(3-(6-methoxypyridin-3-yl)-5-(5-(1-methyl-1H-pyrazol-4-yl)-1H-benzo[d]-imidazol-1-yl)phenyl)acetamide]
inhibition at 1 µM [1]: 95%
IC50 [1]: 22 nM
inhibition at 1 µM [2]: 12%

— patent publication US9447091B2, “Protein kinase inhibitors” (Orion Corporation, priority 2011, dated 2016)
